Laboratory results: the NIST ThermoML archive (doi:10.1021/je0501843)

Assay: wn = mass fraction of the nth substance listed
Conditions: Fluid (supercritical or subcritical phases), isochoric method, w1 = 0.5001

FC(F)C(F)(F)F [pentafluoroethane] + FCF
Conditions | mass density [kg/m3]
301 K, 4414 kPa | 1071.2
302 K, 4977 kPa | 1071
303 K, 5537 kPa | 1070.9
303 K, 5540 kPa | 1070.9
304 K, 6101 kPa | 1070.8
304 K, 6103 kPa | 1070.8
305 K, 6663 kPa | 1070.6
306 K, 7227 kPa | 1070.5
306 K, 7228 kPa | 1070.5
307 K, 7791 kPa | 1070.4
307 K, 7792 kPa | 1070.4
308 K, 8356 kPa | 1070.2
308 K, 8357 kPa | 1070.2
309 K, 8918 kPa | 1070.1
310 K, 9482 kPa | 1070
310 K, 9484 kPa | 1070
311 K, 10048 kPa | 1069.8
311 K, 10049 kPa | 1069.8
312 K, 10614 kPa | 1069.7
312 K, 10615 kPa | 1069.7
313 K, 11178 kPa | 1069.6
313 K, 11179 kPa | 1069.6
314 K, 11741 kPa | 1069.4
314 K, 11743 kPa | 1069.4
315 K, 12309 kPa | 1069.3
316 K, 12875 kPa | 1069.2
316 K, 12877 kPa | 1069.2
317 K, 13440 kPa | 1069
318 K, 14003 kPa | 1068.9
318 K, 14005 kPa | 1068.9
319 K, 14570 kPa | 1068.8
319 K, 14571 kPa | 1068.8
320 K, 15135 kPa | 1068.6
320 K, 15137 kPa | 1068.6
321 K, 15700 kPa | 1068.5
321 K, 15701 kPa | 1068.5
322 K, 16263 kPa | 1068.4
322 K, 16265 kPa | 1068.4
323 K, 16830 kPa | 1068.2
324 K, 17394 kPa | 1068.1
324 K, 17396 kPa | 1068.1
325 K, 5448 kPa | 946.2
325 K, 17959 kPa | 1068
325 K, 17961 kPa | 1068
326 K, 5835 kPa | 946.1
326 K, 5836 kPa | 946.1
326 K, 18524 kPa | 1067.8
326 K, 18525 kPa | 1067.8
327 K, 6224 kPa | 946
327 K, 6225 kPa | 946
327 K, 19088 kPa | 1067.7
327 K, 19090 kPa | 1067.7
328 K, 6615 kPa | 945.9
328 K, 6616 kPa | 945.9
328 K, 19652 kPa | 1067.6
328 K, 19655 kPa | 1067.6
329 K, 7006 kPa | 945.8
329 K, 7007 kPa | 945.8
330 K, 7397 kPa | 945.7
330 K, 7399 kPa | 945.7
331 K, 7788 kPa | 945.6
331 K, 7790 kPa | 945.6
332 K, 8183 kPa | 945.5
332 K, 8184 kPa | 945.5
333 K, 8579 kPa | 945.4
334 K, 8970 kPa | 945.4
334 K, 8971 kPa | 945.4
335 K, 9364 kPa | 945.3
336 K, 9759 kPa | 945.2
337 K, 10156 kPa | 945.1
337 K, 10157 kPa | 945.1
338 K, 6179 kPa | 859.9
338 K, 10552 kPa | 945
338 K, 10553 kPa | 945
339 K, 6478 kPa | 859.9
339 K, 10948 kPa | 944.9
340 K, 6782 kPa | 859.8
340 K, 11344 kPa | 944.8
340 K, 11346 kPa | 944.8
341 K, 7089 kPa | 859.7
341 K, 11743 kPa | 944.7
341 K, 11745 kPa | 944.7
342 K, 7389 kPa | 859.6
342 K, 12139 kPa | 944.6
342 K, 12142 kPa | 944.6
343 K, 7693 kPa | 859.6
343 K, 12536 kPa | 944.5
343 K, 12538 kPa | 944.5
344 K, 7998 kPa | 859.5
344 K, 12935 kPa | 944.4
344 K, 12936 kPa | 944.4
345 K, 8306 kPa | 859.4
345 K, 13334 kPa | 944.3
346 K, 8612 kPa | 859.3
346 K, 13733 kPa | 944.2
347 K, 6281 kPa | 761.1
347 K, 8917 kPa | 859.3
347 K, 14131 kPa | 944.1
348 K, 6505 kPa | 761.1
348 K, 9225 kPa | 859.2
348 K, 14528 kPa | 944
349 K, 5380 kPa | 475.9
349 K, 6732 kPa | 761
349 K, 9535 kPa | 859.1
349 K, 14929 kPa | 943.9
350 K, 5486 kPa | 475.9
350 K, 5543 kPa | 525.9
350 K, 5720 kPa | 615
350 K, 6957 kPa | 761
350 K, 9844 kPa | 859
350 K, 15331 kPa | 943.8
351 K, 5591 kPa | 475.9
351 K, 5661 kPa | 525.9
351 K, 5866 kPa | 615
351 K, 7184 kPa | 760.9
351 K, 10153 kPa | 859
351 K, 15729 kPa | 943.7
352 K, 5697 kPa | 475.9
352 K, 5778 kPa | 525.9
352 K, 5877 kPa | 571.5
352 K, 6013 kPa | 615
352 K, 7411 kPa | 760.8
352 K, 10462 kPa | 858.9
352 K, 16128 kPa | 943.6
353 K, 5802 kPa | 475.9
353 K, 5898 kPa | 525.9
353 K, 6010 kPa | 571.5
353 K, 6163 kPa | 615
353 K, 7640 kPa | 760.8
353 K, 10771 kPa | 858.8
353 K, 16529 kPa | 943.5
354 K, 5907 kPa | 475.9
354 K, 6017 kPa | 525.8
354 K, 6144 kPa | 571.4
354 K, 6312 kPa | 614.9
354 K, 7867 kPa | 760.7
354 K, 11082 kPa | 858.7
354 K, 16929 kPa | 943.4
355 K, 6013 kPa | 475.9
355 K, 6136 kPa | 525.8
355 K, 6277 kPa | 571.4
355 K, 6460 kPa | 614.9
355 K, 8099 kPa | 760.7
355 K, 11393 kPa | 858.7
355 K, 17330 kPa | 943.3
356 K, 6119 kPa | 475.9
356 K, 6256 kPa | 525.8
356 K, 6409 kPa | 571.4
356 K, 6610 kPa | 614.9
356 K, 8331 kPa | 760.6
356 K, 11703 kPa | 858.6
356 K, 17728 kPa | 943.3
357 K, 6227 kPa | 475.9
357 K, 6375 kPa | 525.8
357 K, 6544 kPa | 571.4
357 K, 6762 kPa | 614.8
357 K, 8563 kPa | 760.6
357 K, 12015 kPa | 858.5
357 K, 18129 kPa | 943.2
358 K, 6332 kPa | 475.9
358 K, 6496 kPa | 525.8
358 K, 6679 kPa | 571.3
358 K, 6913 kPa | 614.8
358 K, 8795 kPa | 760.5
358 K, 12328 kPa | 858.4
358 K, 18529 kPa | 943.1
359 K, 6438 kPa | 475.9
359 K, 6616 kPa | 525.8
359 K, 6814 kPa | 571.3
359 K, 7064 kPa | 614.8
359 K, 9028 kPa | 760.4
359 K, 12639 kPa | 858.4
359 K, 18928 kPa | 943
360 K, 6544 kPa | 475.9
360 K, 6737 kPa | 525.8
360 K, 6948 kPa | 571.3
360 K, 7219 kPa | 614.7
360 K, 9258 kPa | 760.4
360 K, 12952 kPa | 858.3
361 K, 6650 kPa | 475.8
361 K, 6858 kPa | 525.7
361 K, 7085 kPa | 571.3
361 K, 7368 kPa | 614.7
361 K, 9493 kPa | 760.3
361 K, 13265 kPa | 858.2
362 K, 6758 kPa | 475.8
362 K, 6980 kPa | 525.7
362 K, 7222 kPa | 571.2
362 K, 7523 kPa | 614.7
362 K, 9726 kPa | 760.3
362 K, 13581 kPa | 858.1
363 K, 6864 kPa | 475.8
363 K, 7101 kPa | 525.7
363 K, 7357 kPa | 571.2
363 K, 7676 kPa | 614.6
363 K, 9958 kPa | 760.2
